Laboratory results reported in paper PMC10537604, “Development and Assessment of 1,5–Diarylpyrazole/Oxime Hybrids Targeting EGFR and JNK–2 as Antiproliferative Agents: A Comprehensive Study through Synthesis, Molecular Docking, and Evaluation” (Molecules, 2023).

Key:
[1] = tested on: human cervical cancer cell line Hela; experiment: WST-8 antiproliferative assay, Hela; assay type: cell-based; settings: WST-8 assay; for inhibition at 100 µM: read-out: Growth Inhibition (GI%) Hela; for IC50: six concentrations 1-100 µM, read-out: IC50 Hela
Procedure: (§1) Compounds 7a–j, 8a–j, 9a–c, and 10a–c were evaluated for in vitro anticancer activities against five different cancer cell lines, namely, human colorectal adenocarcinoma cell lines DLD-1, human cervical cancer cell line Hela, human pancreatic cancer cell line SUIT-2, human myelogenous leukemia cell line K562, and human hepatocellular carcinoma cell line HepG2 using WST-8 assay at concentrations of 100 µM to investigate the growth inhibition percent (GI%) of each compound using daunorubicin as a reference drug. […]. […] So, as a conclusion on the SAR study of those compounds as antiproliferative agents, the oxime moiety potentiated the anticancer activity and electron donating groups on R1 and R2 played an important role on this activity. Moreover, the sulfamoyl moiety on R3 seems to play a potential role in the activity of the prepared compounds (Table 1).
(§2) All selected compounds and daunorubicin were recorded as the minimum concentration required to inhibit half cell growth (IC50) and the results are listed in Table 2.
(§3) Evaluation of anticancer activity was performed according to the standard water-soluble tetrazolium-8 (WST-8) assay at the Faculty of Engineering, Yamagata University, Yonezawa, Japan, using an MTP-310 absorbance microplate reader. The EGFR inhibitory assay was carried out at the Faculty of Engineering, Yamagata University, Yonezawa, Japan, according to the protocol enzyme linked immunosorbent assay (ELISA) kits (Douset sandwich ELISA test, recombinant mouse EGFR). The JNK-2 inhibitory assay was performed at the Faculty of Engineering, Yamagata University, Yonezawa, Japan, according to the protocol of enzyme-linked immunosorbent assay (ELISA), the assay was carried out using the JNK-2 kit (Simple Step ELISA, pT183/Y185, Abcam Company, Cambridge, CB2 0AX, UK). Apoptosis and cell cycle analysis was performed at Faculty of medicine, Yamagata University, Yamagata, Japan, using BD FACS melody. Molecular docking was performed at the Nano Medical Engineering Laboratory, RIKEN Cluster for Pioneering Researchers, RIEKN, Japan, using ICM-Pro 3.8 software (MolSoft L.L.C., San Diego, CA, USA).
(§4) According to the standard water-soluble tetrazolium-8 (WST-8) assay, the current synthesized compounds have been tested for their anticancer activities against different five cancer cell lines; DLD-1, Hela, K562, SUIT-2, and HepG2 and daunorubicin was used as reference drug by the WST-8 assay. The five cells were maintained in a suspension culture, (Dulbecco’s modified eagle medium (DMEM) for SUIT-2, Hela, and HepG2 or PRIM for K562 and DLD), supplemented with 5% FBS (Fetal Bovine Serum) containing 1% of a penicillin-streptomycin (1:1) mixture. A 100 μL aliquot of cells (10,000 cells/mL) was added to a 96 well plate and incubated for 24 h at 37 °C in a humidified incubator containing 5% CO2 in the air. […] Then A 10 μL WST-8 solution (mixture of WST-8 and 1-methoxy PMS) was added to each well and the incubation continued for 3 h. The visible absorbance at 450 nm and 630 nm as the reference wavelength of each well was quantified using an MTP-310 absorbance microplate reader. Daunorubicin was used as a positive control. The results of cytotoxicity were recorded as growth inhibition percentages and as IC50 values.

[2] = tested on: human hepatocellular carcinoma cell line HepG2; experiment: WST-8 antiproliferative assay, HepG2; assay type: cell-based; settings: HepG2, 100 µM, WST-8 assay, read-out: Growth Inhibition (GI%) HepG2
Procedure: as §1, §2, §3
(§5) According to the standard water-soluble tetrazolium-8 (WST-8) assay, the current synthesized compounds have been tested for their anticancer activities against different five cancer cell lines; DLD-1, Hela, K562, SUIT-2, and HepG2 and daunorubicin was used as reference drug by the WST-8 assay. The five cells were maintained in a suspension culture, (Dulbecco’s modified eagle medium (DMEM) for SUIT-2, Hela, and HepG2 or PRIM for K562 and DLD), supplemented with 5% FBS (Fetal Bovine Serum) containing 1% of a penicillin-streptomycin (1:1) mixture. A 100 μL aliquot of cells (10,000 cells/mL) was added to a 96 well plate and incubated for 24 h at 37 °C in a humidified incubator containing 5% CO2 in the air. After 24 h, a 10 μL aliquot of test compound (concentrations varying in the range of 10–150 µM) was added to each of the 96 wells and incubated for 24 h. Then A 10 μL WST-8 solution (mixture of WST-8 and 1-methoxy PMS) was added to each well and the incubation continued for 3 h. The visible absorbance at 450 nm and 630 nm as the reference wavelength of each well was quantified using an MTP-310 absorbance microplate reader. Daunorubicin was used as a positive control. The results of cytotoxicity were recorded as growth inhibition percentages and as IC50 values.

[3] = tested on: human hepatocellular carcinoma cell line HepG2; experiment: WST-8 antiproliferative assay, HepG2; assay type: cell-based; settings: WST-8 assay, six concentrations 1-100 µM
[4] = tested on: human pancreatic cancer cell line SUIT-2; experiment: WST-8 antiproliferative assay, SUIT-2; assay type: cell-based; settings: WST-8 assay, six concentrations 1-100 µM
[5] = tested on: human colorectal adenocarcinoma cell line DLD-1; experiment: WST-8 antiproliferative assay, DLD-1; assay type: cell-based; settings: WST-8 assay, six concentrations 1-100 µM
[6] = tested on: human colorectal adenocarcinoma cell line DLD-1; experiment: WST-8 antiproliferative assay, DLD-1; assay type: cell-based; settings: DLD-1, 100 µM, WST-8 assay, read-out: Growth Inhibition (GI%) DLD-1
Procedure: as §1, §2, §3, §5

[7] = tested on: human pancreatic cancer cell line SUIT-2; experiment: WST-8 antiproliferative assay, SUIT-2; assay type: cell-based; settings: SUIT-2, 100 µM, WST-8 assay, read-out: Growth Inhibition (GI%) SUIT-2
Procedure: as §1, §2, §3, §5

[8] = tested on: human myelogenous leukemia cell line K562; experiment: WST-8 antiproliferative assay, K562; assay type: cell-based; settings: Homo sapiens, K562, WST-8 assay; for inhibition at 100 µM: read-out: Growth Inhibition (GI%) K562
Procedure: as §1, §2, §3, §4

COc1cc(C(C)=O)ccc1OC(=O)c1cc(-c2ccc(C)cc2)n(-c2ccccc2)n1 [Compound 7b, 4–Acetyl–2–methoxyphenyl–1–phenyl 5–p–tolyl–1H–pyrazole–3–carboxylate]
inhibition at 100 µM [1]: 83% | IC50 [1]: 55 µM | inhibition at 100 µM [2]: 85% | IC50 [3]: 45 µM | melting point: 110 to 112 °C | IC50 [4]: 45 µM | IC50 [5]: 13 µM | inhibition at 100 µM [6]: 81% | inhibition at 100 µM [7]: 103% | inhibition at 100 µM [8]: 70%

COc1cc(C(C)=O)ccc1OC(=O)c1cc(-c2ccc(Cl)cc2)n(-c2ccccc2)n1 [Compound 7d, 4–Acetyl–2–methoxyphenyl–5–(4–chlorophenyl) 1–phenyl–1H–pyrazole–3–carboxylate]
inhibition at 100 µM [1]: 104% | IC50 [1]: 15 µM | inhibition at 100 µM [2]: 31% | melting point: 85 to 87 °C | IC50 [4]: 43 µM | IC50 [5]: 81 µM | inhibition at 100 µM [6]: 72% | inhibition at 100 µM [7]: 104% | inhibition at 100 µM [8]: 50%

COc1cc(C(C)=O)ccc1OC(=O)c1cc(-c2ccc(C)cc2)n(-c2ccc(S(N)(=O)=O)cc2)n1 [Compound 7g, 4–Acetyl–2–methoxyphenyl–1–(4–sulfamoylphenyl) 5–p–tolyl–1H–pyrazole–3–carboxylate]
inhibition at 100 µM [1]: 30% | inhibition at 100 µM [2]: 66% | melting point: 83 to 85 °C | IC50 [4]: 31 µM | IC50 [5]: 13 µM | inhibition at 100 µM [6]: 96.7% | inhibition at 100 µM [7]: 92% | inhibition at 100 µM [8]: 77%

COc1cc(C(C)=O)ccc1OC(=O)c1cc(-c2ccc(Cl)cc2)n(-c2ccc(S(N)(=O)=O)cc2)n1 [Compound 7i, 4–Acetyl–2–methoxyphenyl–5–(4–chlorophenyl) 1–(4–sulfamoylphenyl)–1H–pyrazole–3–carboxylate]
inhibition at 100 µM [1]: 101% | IC50 [1]: 25 µM | inhibition at 100 µM [2]: 63% | melting point: 71 to 74 °C | IC50 [4]: 92 µM | inhibition at 100 µM [6]: 46% | inhibition at 100 µM [7]: 101% | inhibition at 100 µM [8]: 101% | IC50 ([8]; six concentrations 1-100 µM, read-out: IC50 K562): 93 µM

COc1ccc(-c2cc(C(=O)Nc3ccc(C(C)=O)cc3)nn2-c2ccc(S(N)(=O)=O)cc2)cc1 [Compound 9b, N–(4–Acetylphenyl)–5–(4–methoxyphenyl)–1–(4–sulfamoylphenyl)–1H–pyrazole–3–carboxamide]
inhibition at 100 µM [1]: 0% | inhibition at 100 µM [2]: 19% | melting point: 74 to 76 °C | inhibition at 100 µM [6]: 42.1% | inhibition at 100 µM [7]: 45% | inhibition at 100 µM [8]: 31%

COc1ccc(-c2cc(C(=O)Nc3ccc(C(C)=O)cc3)nn2-c2ccc(S(N)(=O)=O)cc2)cc1OC [Compound 9c, N–(4–Acetylphenyl)–5–(3,4–dimethoxyphenyl)–1–(4–sulfamoylphenyl)–1H–pyrazole–3–carboxamide]
inhibition at 100 µM [1]: 9% | inhibition at 100 µM [2]: 22% | melting point: 81 to 83 °C | inhibition at 100 µM [6]: 16.8% | inhibition at 100 µM [7]: 42% | inhibition at 100 µM [8]: 57%
